The values that follow come from patent US20050106639A1, “Method for quantification of AKT protein expression” (Ventana Medical Systems, Inc., priority 2000, published 2005).

Common to all, as to type: cell-based
For one test, the system named is AKT-2. Description: Immunoprecipitation and anti-phospho-Akt Western blot, AKT-2. As to the method: (§1) MDA-MB-435 and MDA-MB-435/HER-2 cells were obtained from Dr. Yu at the UTMD Anderson Cancer Center, Houston, Tex. Cells were grown in RPMI 1640 supplemented as above in 8% CO2 at 37° C. Western blotting was done as follows. Cells were lysed in lysis buffer (50 mM Tris-HCl, pH 7.4, 150 mM sodium chloride, 1 mM EDTA, 1% Nonidet P-40, 1 mM sodium orthovanadate, 1 mM sodium fluoride, 1 mM phenylmethylsulfonyl fluoride, 2 ug/ml pepstatin, 2 ug/ml leupeptin, 2 ug/ml aprotinin), centrifuged at 4° C. for 5 min at 6500 g, and protein concentration was determined with a BioRad Protein Assay Kit (BioRad, Hercules, Cailf.). Proteins were separated by electrophoresis using a Bis-Tris NuPAGE system with 1× MOPS running buffer (Novex, San Diego, Cailf.) and transferred to Hybond C-extra membrane (Amersham Pharmacia Biotech, Piscataway, N.J.). Membranes were blocked with non-fat dry milk, incubated with the appropriate antibodies, washed with PBS (phosphate buffered saline) and incubated with horseradish peroxidase-conjugated secondary antibody. […]
(§2) The activated (phosphorylated) state of total AKT (AKT-1 plus AKT-2) in cells over-expressing HER-2/neu was measured to study the functional significance of c-akt in HER-2/neu over-expressing cells and cancers. […] Activated AKT was determined by antibodies that specifically recognize the phosphorylated state of AKT protein. […]
For orientation: In western blotting, separated proteins are transferred to a membrane and probed.

The subject of test [1] is total AKT (AKT-1 plus AKT-2). The test can be described thus: Western blot of activated (phosphorylated) total AKT in HER-2/neu over-expressing cells. The conditions noted are these: SKBR3, BR474, AU565 cells, Heregulin 10 ng/ml or Herceptin 20 mg/ml. As to the method:
as §1, §2

Another test concerns AKT-1. The test can be described thus: Immunoprecipitation and anti-phospho-Akt Western blot, AKT-1. As to the method: as §1, §2
Where [2] appears, read: SKBR3, BR474, AU565 cells, Heregulin 10 ng/ml or Herceptin 20 mg/ml, Western blot.

Regarding Heregulin, the “level of AKT-2 phosphorylation after treatment” value in the test on AKT-2 (setting [2]) is on record as “remained high”. Besides, in the test with AKT-2 (exposure for 3 days), the “phosphorylated state of AKT-2” value was “did not affect”. The “phosphorylation of total AKT” value in test [1] is given as “increased”. The AKT-1 phosphorylation entry in the test with AKT-1 (setting [2]) is “increased”. Moreover, the “phosphorylated state of AKT-1” value in the test on AKT-1 (exposure for 3 days) is on record as “down-regulation”.
